Target: CDK2 (human) (UniProt P24941)
Assay: Cell-Based Assay

For COc1cc[nH]c1/C=C1\C(=O)Nc2ccc([N+](=O)[O-])c(-n3ccnc3)c21, the IC50 (mda-mb-435) was > 30 µM.

In the case of COc1cc[nH]c1/C=C1\C(=O)Nc2ccc([N+](=O)[O-])c(NC3CCC(O)C3)c21 (stereo unspecified), the IC50 (mda-mb-435) is reported as 1 µM and the IC50 (rko) is reported as 0.339 µM.

COc1cc[nH]c1/C=C1\C(=O)Nc2ccc([N+](=O)[O-])c(NC3CCC(N)C3)c21 (stereo unspecified) was tested, and the IC50 (mda-mb-435) was 0.061 µM and the IC50 (rko) was < 0.015 µM.

For COc1cc[nH]c1/C=C1\C(=O)Nc2ccc([N+](=O)[O-])c(N3CC[C@@H](N)C3)c21, the IC50 (mda-mb-435) was < 0.01 µM and the IC50 (rko) was < 0.01 µM.

In the case of COc1cc[nH]c1/C=C1\C(=O)Nc2ccc([N+](=O)[O-])c(N3CCC(O)CC3)c21, the IC50 (rko) is reported as < 0.01 µM.

In the case of COc1cc[nH]c1/C=C1\C(=O)Nc2ccc([N+](=O)[O-])c(N3CCC(N)CC3)c21, the IC50 (mda-mb-435) is reported as < 0.01 µM and the IC50 (rko) is reported as < 0.01 µM.

For COc1cc[nH]c1/C=C1\C(=O)Nc2ccc(F)cc21, the IC50 (mda-mb-435) was > 30 µM.

From the Kinase Knowledgebase extract (Sharma et al. 2016)
